US11427869B2, “T cell balance gene expression, compositions of matters and methods of use thereof” (THE BROAD INSTITUTE, INC., priority 2015, dated 2022)

Tested on: CD5L−/− Th17 cells
Assay: Nanostring nCounter Th17 codeset (312 genes), PUFA- or control-treated CD5L−/− Th17 cells
Type: cell-based, mouse
Description: Applicants studied the contribution of lipid saturation to Th17 cell pathogenicity. […] Applicants analyzed the expression of a 312 gene signature of Th17 cell differentiation and function (Yosef et al., 2013) in SFA- or control-treated WT Th17 cells and in PUFA- or control-treated CD5L−/− Th17 cells differentiated with TGF-81+IL-6.
T cell differentiation culture. Naïve CD4+CD44−CD62L+CD25− T cells or Effector memory CD4+CD44+CD62L− were sorted using BD FACSAria sorter and activated with plate-bound anti-CD3 and anti-CD28 antibodies (both at 2 μg/ml) in the presence of cytokines at a concentration of 2.5×10^5 cells/ml. For Th17 differentiation: 2 ng/ml of rhTGFβ1, 2 ng/ml of rhTGFβ3, 25 ng/ml rmIL-6, 20 ng/ml rmIL-18 (all from Miltenyi Biotec) and 20 ng/ml rmIL-23 (R & D systems) were used at various combinations as specified in figures. For Th1 differentiation, 20 ng/ml rmIL-12 (R & D systems); for Th2 differentiation 20 ng/ml rmIL-4 (Miltenyi Biotec); for iTreg differentiation, 2.5 ng/ml of rhTGFβ1 were used (Miltenyi Biotec). For differentiation experiments, cells were harvested at 48 hours. For restimulation experiments, cells were differentiated for 48 hours and resuspended in fresh media with no additional cytokines for 48-72 hours. Cells were re-stimulated with PMA/ionomycin for four hours before analysis for cytokines by intracellular cytokine staining. For experiments with exogenous fatty acid, fatty acids were purchased and resuspended first with serum-free media containing BSA prior being added to culture.
Nanostring nCounter. Nanostring nCounter platform (NanoString Technologies) is used to measure the number of RNA transcripts in RNA samples (FIG. 16I, FIG. 18D). A codeset containing 312 signature genes of Th17 cell differentiation and function as well as 4 additional house-keeping genes were custom-made (Yosef et al., 2013) and used in these experiments. Experimental procedures as detailed by the manufacturer is strictly followed.

Structure (SMILES): CCCCC/C=C\C/C=C\C/C=C\C/C=C\CCCC(=O)O [PUFA, arachidonic acid]
- Irf4 expression (Nanostring), normalized to WT (CD5LKO Th17 cells + PUFA): 0.65
- Irf7 expression (Nanostring), normalized to WT (CD5LKO Th17 cells + PUFA): 1.17
- Irf8 expression (Nanostring), normalized to WT (CD5LKO Th17 cells + PUFA): 1.29
- Itga3 expression (Nanostring), normalized to WT (CD5LKO Th17 cells + PUFA): 0.76
- Jak3 expression (Nanostring), normalized to WT (CD5LKO Th17 cells + PUFA): 1.27
- Jun expression (Nanostring), normalized to WT (CD5LKO Th17 cells + PUFA): 0.64
- Kat2b expression (Nanostring), normalized to WT (CD5LKO Th17 cells + PUFA): 1.22
- Klf9 expression (Nanostring), normalized to WT (CD5LKO Th17 cells + PUFA): 0.75
- Klf10 expression (Nanostring), normalized to WT (CD5LKO Th17 cells + PUFA): 1.30
- Klrd1 expression (Nanostring), normalized to WT (CD5LKO Th17 cells + PUFA): 0.63
- Lad1 expression (Nanostring), normalized to WT (CD5LKO Th17 cells + PUFA): 1.18
- Lgals3bp expression (Nanostring), normalized to WT (CD5LKO Th17 cells + PUFA): 1.34
- Litaf expression (Nanostring), normalized to WT (CD5LKO Th17 cells + PUFA): 0.61
- Lpxn expression (Nanostring), normalized to WT (CD5LKO Th17 cells + PUFA): 1.39
- Maf expression (Nanostring), normalized to WT (CD5LKO Th17 cells + PUFA): 0.84
- Maff expression (Nanostring), normalized to WT (CD5LKO Th17 cells + PUFA): 0.77
- Map3k5 expression (Nanostring), normalized to WT (CD5LKO Th17 cells + PUFA): 1.49
- Mbnl3 expression (Nanostring), normalized to WT (CD5LKO Th17 cells + PUFA): 1.30
- Mina expression (Nanostring), normalized to WT (CD5LKO Th17 cells + PUFA): 1.08
- Mt1 expression (Nanostring), normalized to WT (CD5LKO Th17 cells + PUFA): 0.79
- Mt2 expression (Nanostring), normalized to WT (CD5LKO Th17 cells + PUFA): 0.84
- Nfkbie expression (Nanostring), normalized to WT (CD5LKO Th17 cells + PUFA): 1.52
- Nkg7 expression (Nanostring), normalized to WT (CD5LKO Th17 cells + PUFA): 1.40
- Notch2 expression (Nanostring), normalized to WT (CD5LKO Th17 cells + PUFA): 1.20
- Oas2 expression (Nanostring), normalized to WT (CD5LKO Th17 cells + PUFA): 0.82
- Peli2 expression (Nanostring), normalized to WT (CD5LKO Th17 cells + PUFA): 0.83
- Plac8 expression (Nanostring), normalized to WT (CD5LKO Th17 cells + PUFA): 0.85
- Plagl1 expression (Nanostring), normalized to WT (CD5LKO Th17 cells + PUFA): 1.07
- Pmepa1 expression (Nanostring), normalized to WT (CD5LKO Th17 cells + PUFA): 1.19
- Pou2af1 expression (Nanostring), normalized to WT (CD5LKO Th17 cells + PUFA): 0.86
- Prkd3 expression (Nanostring), normalized to WT (CD5LKO Th17 cells + PUFA): 1.51
- Pstpip1 expression (Nanostring), normalized to WT (CD5LKO Th17 cells + PUFA): 1.24
- Rab33a expression (Nanostring), normalized to WT (CD5LKO Th17 cells + PUFA): 1.50
- Rasgrp1 expression (Nanostring), normalized to WT (CD5LKO Th17 cells + PUFA): 1.21
- Rel expression (Nanostring), normalized to WT (CD5LKO Th17 cells + PUFA): 0.73
- Rela expression (Nanostring), normalized to WT (CD5LKO Th17 cells + PUFA): 0.96
- Rfk expression (Nanostring), normalized to WT (CD5LKO Th17 cells + PUFA): 1.07
- Rorc expression (Nanostring), normalized to WT (CD5LKO Th17 cells + PUFA): 1.52
- Sap30 expression (Nanostring), normalized to WT (CD5LKO Th17 cells + PUFA): 0.81
- Sema7a expression (Nanostring), normalized to WT (CD5LKO Th17 cells + PUFA): 1.04
- Serpinb1a expression (Nanostring), normalized to WT (CD5LKO Th17 cells + PUFA): 0.77
- Ski expression (Nanostring), normalized to WT (CD5LKO Th17 cells + PUFA): 0.86
- Slc6a6 expression (Nanostring), normalized to WT (CD5LKO Th17 cells + PUFA): 1.03
- Smad3 expression (Nanostring), normalized to WT (CD5LKO Th17 cells + PUFA): 1.03
- Socs3 expression (Nanostring), normalized to WT (CD5LKO Th17 cells + PUFA): 1.38
- Spp1 expression (Nanostring), normalized to WT (CD5LKO Th17 cells + PUFA): 0.66
- Spry1 expression (Nanostring), normalized to WT (CD5LKO Th17 cells + PUFA): 1.02
- Stat4 expression (Nanostring), normalized to WT (CD5LKO Th17 cells + PUFA): 1.21
- Stat5b expression (Nanostring), normalized to WT (CD5LKO Th17 cells + PUFA): 1.19
- Stat6 expression (Nanostring), normalized to WT (CD5LKO Th17 cells + PUFA): 1.13
- Sult2b1 expression (Nanostring), normalized to WT (CD5LKO Th17 cells + PUFA): 0.61
- Tal2 expression (Nanostring), normalized to WT (CD5LKO Th17 cells + PUFA): 1.52
- Tcf4 expression (Nanostring), normalized to WT (CD5LKO Th17 cells + PUFA): 1.29
- Tgfb1 expression (Nanostring), normalized to WT (CD5LKO Th17 cells + PUFA): 0.68
- Tgfb3 expression (Nanostring), normalized to WT (CD5LKO Th17 cells + PUFA): 1.67
- Tgfbr3 expression (Nanostring), normalized to WT (CD5LKO Th17 cells + PUFA): 0.94
- Tgm2 expression (Nanostring), normalized to WT (CD5LKO Th17 cells + PUFA): 1.51
- Tmem229b expression (Nanostring), normalized to WT (CD5LKO Th17 cells + PUFA): 1.52
- Tnfrsf4 expression (Nanostring), normalized to WT (CD5LKO Th17 cells + PUFA): 1.05
- Tnip2 expression (Nanostring), normalized to WT (CD5LKO Th17 cells + PUFA): 0.78
- Trat1 expression (Nanostring), normalized to WT (CD5LKO Th17 cells + PUFA): 0.85
- Trim25 expression (Nanostring), normalized to WT (CD5LKO Th17 cells + PUFA): 1.17
- Trps1 expression (Nanostring), normalized to WT (CD5LKO Th17 cells + PUFA): 1.44
- Tsc22d3 expression (Nanostring), normalized to WT (CD5LKO Th17 cells + PUFA): 0.66
- Ubiad1 expression (Nanostring), normalized to WT (CD5LKO Th17 cells + PUFA): 1.16
- Vav3 expression (Nanostring), normalized to WT (CD5LKO Th17 cells + PUFA): 1.20
- Xrcc5 expression (Nanostring), normalized to WT (CD5LKO Th17 cells + PUFA): 1.27
- nrp1 expression (Nanostring), normalized to WT (CD5LKO Th17 cells + PUFA): 0.90
- pou2f1 expression (Nanostring), normalized to WT (CD5LKO Th17 cells + PUFA): 0.66
- transcriptional signature (312 gene Th17 codeset, genes >1.5 fold) (PUFA-treated CD5L−/− Th17 cells, TGF-β1+IL-6): resemble WT non-pathogenic Th17 cells
